# According to PMC7442650, “A machine learning-based chemoproteomic approach to identify drug targets and binding sites in complex proteomes” (Nature Communications, 2020):
# Like-named read-outs stand apart in the source and are kept apart here.
# Columns and labels:
# PP2A/B (PPP2CA;PPP2CB) = assay: LiP-Quant, HeLa lysate; format: binding, human
# PP1 = assay: LiP-Quant, HeLa lysate; format: binding, human; settings: 16 peptides, read-out: median EC50 across LiP-Quant peptides
# Source text: Next, we focused on kinases and phosphatases as drug targets of particular pharmacological interest, given their frequent dysregulation in disease, particularly in cancer. One common issue with these classes of targets is their variable selectivity, as some of these drugs have more than one protein target in the cell, and frequently bind them with different affinities, thus it is important to characterize these subtle differences to determine the specific modes of actions.
# PPP1CA = PPP1CA (Homo sapiens, UniProt P62136); assay: LiP-Quant, HeLa lysate; format: binding; settings: peptide […]
# PPP3CA = PPP3CA (Homo sapiens, UniProt Q08209); assay: LiP-Quant, HeLa lysate; format: binding; settings: peptide SDDELGSEEDGFDGATAAAR
# PP2A and PP1 = settings: cited from earlier work
# FKBP1A = FKBP1A (Homo sapiens, UniProt P62942)
# ARI1 = biological target: T1, ARI1 (Saccharomyces cerevisiae, UniProt P53111); assay: LiP-Quant, S. cerevisiae lysates; format: binding; settings: wild type yeast lysate
# T1 construct: Cell lysates from at least three independent biological replicates were aliquoted in equivalent volumes containing 100 µg of proteome sample; endogenous in cells; host or cells: S. cerevisiae (Euroscarf strains), cryo-milled lysate
# Procedure: (§1) To discriminate between these two cases, the same LiP-Quant experiment was performed with lysates where TOR signaling was impaired via a mutation in the tor1 gene and a deletion of the fpr1 gene (tor1-1 Δfpr1)[20].
# (§2) Saccharomyces cerevisiae: Cell lysates from at least three independent biological replicates were aliquoted in equivalent volumes containing 100 µg of proteome sample and incubated for 10 min at 25 °C with the drug of interest. […] Samples were then heated again at 98 °C for 3 min in a thermocycler. These samples were then subjected to complete digestion in denaturing conditions as described below.
# SYEC = biological target: T2, SYEC (Saccharomyces cerevisiae, UniProt P46655); assay: LiP-Quant, S. cerevisiae lysates; format: binding; settings: wild type yeast lysate
# T2 construct: Cell lysates from at least three independent biological replicates were aliquoted in equivalent volumes containing 100 µg of proteome sample; endogenous in cells; host or cells: S. cerevisiae (Euroscarf strains), cryo-milled lysate
# Procedure: as §1, §2
# [1] = biological target: T3, FPR1 (FK506-binding protein 1, P20081) (Saccharomyces cerevisiae, UniProt P20081); assay: LiP-Quant, S. cerevisiae lysates (wild type); settings: Yeast WT; for EC50: EC50 (nM)
# T3 construct: Cell lysates from at least three independent biological replicates were aliquoted in equivalent volumes containing 100 µg of proteome sample; endogenous in cells; host or cells: S. cerevisiae wild type (Euroscarf), cryo-milled lysate
# T3 sequence (P20081 1-114): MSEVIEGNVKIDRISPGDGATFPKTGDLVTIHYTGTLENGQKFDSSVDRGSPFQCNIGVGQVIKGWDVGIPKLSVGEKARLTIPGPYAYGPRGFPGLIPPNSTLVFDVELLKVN
# MAPK2K1 (MAP2K1) = MAPK2K1 (MAP2K1) (Homo sapiens, UniProt Q02750); assay: LiP-Quant, HeLa lysate; format: binding
# PLEC (Plectin) = PLEC (Plectin) (Homo sapiens, UniProt Q15149); assay: LiP-Quant, HeLa lysate; format: binding; settings: peptide QRAEAER
# NQO2 = biological target: T4, NQO2 (Homo sapiens, UniProt P16083); assay: LiP-Quant, HeLa lysate; format: binding; settings: peptide EEPIPCTAHWHFGQ
# T4 sequence (P16083 1-231): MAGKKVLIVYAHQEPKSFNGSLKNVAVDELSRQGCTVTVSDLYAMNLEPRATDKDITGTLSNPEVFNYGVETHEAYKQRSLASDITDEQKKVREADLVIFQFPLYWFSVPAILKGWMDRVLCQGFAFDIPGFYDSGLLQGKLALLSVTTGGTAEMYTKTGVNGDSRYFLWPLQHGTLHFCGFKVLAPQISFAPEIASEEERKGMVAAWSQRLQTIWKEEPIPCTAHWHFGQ
# LIN7C = biological target: T5, LIN7C (Homo sapiens, UniProt Q9NUP9); assay: LiP-Quant, HeLa lysate; format: binding; settings: peptide AASEGHSHPR
# T5 sequence (Q9NUP9 1-197): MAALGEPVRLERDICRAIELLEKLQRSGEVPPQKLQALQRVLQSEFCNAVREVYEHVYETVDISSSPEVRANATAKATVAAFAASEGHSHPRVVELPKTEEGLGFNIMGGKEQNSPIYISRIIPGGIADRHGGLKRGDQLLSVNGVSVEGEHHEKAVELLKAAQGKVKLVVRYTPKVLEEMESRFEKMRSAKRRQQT
# XPO1 (Exportin-1) = XPO1 (Exportin-1) (Homo sapiens, UniProt O14980); assay: LiP-Quant, HeLa lysate; format: binding; settings: peptide NQCEGIKK
# MAPK2K1 = tested on: MAPK2K1; design: method as in PMID 29191878; settings: read-out: EC50 measured with alternative methods; cited from earlier work
# [2] = biological target: ATP1A1 (Sodium/potassium-transporting ATPase subunit alpha-1) (Homo sapiens, UniProt P05023); assay: LiP-Quant, membrane enriched HeLa eluate
# Procedure: (§3) HeLa cells were lysed as above (lysate) however 0.3% n-dodecyl-β-D-maltoside (DDM) was added prior to lysis. […] Beads were then centrifuged at 300g for 30 s to pellet and the supernatant was aspirated. Beads were then washed six times (300g, 30 s between washes) and finally eluted in 400 µl of 0.5 M N-acetyl glucosamine (in LiP buffer without detergent) at 4 °C for 30 min. Beads were pelleted at 300g for 30 s and eluate was collected and protein was quantified by BCA test. LiP-Quant assay was performed with membrane enriched eluate in the same manner as described for standard HeLa lysate.
# [3] = biological target: LDLR (Low-density lipoprotein receptor) (Homo sapiens, UniProt P01130); assay: LiP-Quant, membrane enriched HeLa eluate
# Procedure: as §3
# [4] = biological target: T6, RBM27 (RNA-binding protein 27) (Homo sapiens, UniProt Q9P2N5); assay: LiP-Quant, membrane enriched HeLa eluate
# T6 sequence (Q9P2N5 1-1060): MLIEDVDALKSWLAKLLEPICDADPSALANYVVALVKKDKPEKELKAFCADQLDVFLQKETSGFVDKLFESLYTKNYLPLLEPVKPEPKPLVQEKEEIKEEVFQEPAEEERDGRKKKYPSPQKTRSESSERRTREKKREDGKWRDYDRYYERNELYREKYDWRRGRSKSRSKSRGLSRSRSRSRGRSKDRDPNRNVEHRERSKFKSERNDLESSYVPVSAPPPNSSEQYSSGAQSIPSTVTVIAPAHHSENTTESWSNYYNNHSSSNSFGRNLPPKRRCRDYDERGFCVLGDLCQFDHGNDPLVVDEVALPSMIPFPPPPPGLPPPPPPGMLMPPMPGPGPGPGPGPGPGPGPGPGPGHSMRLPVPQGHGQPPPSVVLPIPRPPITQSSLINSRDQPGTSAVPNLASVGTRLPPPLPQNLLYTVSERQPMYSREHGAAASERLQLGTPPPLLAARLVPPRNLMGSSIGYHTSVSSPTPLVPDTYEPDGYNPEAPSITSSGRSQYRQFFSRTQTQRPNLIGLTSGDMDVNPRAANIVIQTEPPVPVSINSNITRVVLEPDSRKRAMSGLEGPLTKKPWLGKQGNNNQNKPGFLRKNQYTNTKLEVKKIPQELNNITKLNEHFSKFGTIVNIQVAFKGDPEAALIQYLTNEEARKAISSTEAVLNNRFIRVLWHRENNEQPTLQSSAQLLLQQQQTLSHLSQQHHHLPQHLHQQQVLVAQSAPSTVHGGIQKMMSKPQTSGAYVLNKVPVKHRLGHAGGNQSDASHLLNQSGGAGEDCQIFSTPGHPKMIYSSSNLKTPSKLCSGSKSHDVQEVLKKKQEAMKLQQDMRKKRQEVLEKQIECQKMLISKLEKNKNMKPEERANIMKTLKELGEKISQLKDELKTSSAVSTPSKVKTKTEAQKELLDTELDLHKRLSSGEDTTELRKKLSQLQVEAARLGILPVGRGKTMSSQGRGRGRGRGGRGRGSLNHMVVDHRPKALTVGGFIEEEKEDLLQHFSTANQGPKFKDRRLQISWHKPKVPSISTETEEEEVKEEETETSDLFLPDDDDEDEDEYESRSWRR
# Procedure: as §3
# MYH9 (Myosin-9) = MYH9 (Myosin-9) (Homo sapiens, UniProt P35579); assay: LiP-Quant, membrane enriched HeLa eluate
# Procedure: as §3
# [5] = FKBP1A peptide LVFDVELLK, Decreasing
# [6] = FKBP1A peptide VFDVELLK, Decreasing
# [7] = FKBP1A peptide YTGMLEDGK, Decreasing
# FKBP1A, sequence (P62942 whole entry): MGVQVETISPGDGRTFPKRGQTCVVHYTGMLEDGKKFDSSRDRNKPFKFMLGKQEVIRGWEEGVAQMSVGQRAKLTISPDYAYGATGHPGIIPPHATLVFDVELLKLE
# LDLR (Low-density lipoprotein receptor), sequence (P01130 22-860): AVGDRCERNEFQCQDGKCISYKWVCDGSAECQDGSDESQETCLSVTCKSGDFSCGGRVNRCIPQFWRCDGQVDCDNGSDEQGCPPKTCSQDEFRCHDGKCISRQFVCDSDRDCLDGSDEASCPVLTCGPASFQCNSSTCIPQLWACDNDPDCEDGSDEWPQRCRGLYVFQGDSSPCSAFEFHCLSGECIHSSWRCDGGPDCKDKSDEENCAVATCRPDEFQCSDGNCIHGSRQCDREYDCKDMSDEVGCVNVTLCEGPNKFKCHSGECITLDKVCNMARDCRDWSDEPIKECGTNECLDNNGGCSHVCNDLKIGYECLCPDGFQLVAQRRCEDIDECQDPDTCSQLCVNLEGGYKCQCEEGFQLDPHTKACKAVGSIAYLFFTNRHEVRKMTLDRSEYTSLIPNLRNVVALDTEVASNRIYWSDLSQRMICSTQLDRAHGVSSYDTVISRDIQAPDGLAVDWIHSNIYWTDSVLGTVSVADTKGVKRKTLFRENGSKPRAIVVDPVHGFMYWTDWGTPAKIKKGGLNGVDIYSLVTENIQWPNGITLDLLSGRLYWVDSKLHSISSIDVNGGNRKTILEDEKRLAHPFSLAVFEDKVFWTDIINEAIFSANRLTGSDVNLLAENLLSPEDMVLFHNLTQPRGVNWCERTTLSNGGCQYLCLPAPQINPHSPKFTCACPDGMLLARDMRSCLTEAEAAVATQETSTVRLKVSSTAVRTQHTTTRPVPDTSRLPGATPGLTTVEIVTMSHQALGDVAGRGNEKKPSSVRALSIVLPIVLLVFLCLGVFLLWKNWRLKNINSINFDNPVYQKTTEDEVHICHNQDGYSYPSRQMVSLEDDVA
# XPO1 (Exportin-1), sequence (O14980 whole entry): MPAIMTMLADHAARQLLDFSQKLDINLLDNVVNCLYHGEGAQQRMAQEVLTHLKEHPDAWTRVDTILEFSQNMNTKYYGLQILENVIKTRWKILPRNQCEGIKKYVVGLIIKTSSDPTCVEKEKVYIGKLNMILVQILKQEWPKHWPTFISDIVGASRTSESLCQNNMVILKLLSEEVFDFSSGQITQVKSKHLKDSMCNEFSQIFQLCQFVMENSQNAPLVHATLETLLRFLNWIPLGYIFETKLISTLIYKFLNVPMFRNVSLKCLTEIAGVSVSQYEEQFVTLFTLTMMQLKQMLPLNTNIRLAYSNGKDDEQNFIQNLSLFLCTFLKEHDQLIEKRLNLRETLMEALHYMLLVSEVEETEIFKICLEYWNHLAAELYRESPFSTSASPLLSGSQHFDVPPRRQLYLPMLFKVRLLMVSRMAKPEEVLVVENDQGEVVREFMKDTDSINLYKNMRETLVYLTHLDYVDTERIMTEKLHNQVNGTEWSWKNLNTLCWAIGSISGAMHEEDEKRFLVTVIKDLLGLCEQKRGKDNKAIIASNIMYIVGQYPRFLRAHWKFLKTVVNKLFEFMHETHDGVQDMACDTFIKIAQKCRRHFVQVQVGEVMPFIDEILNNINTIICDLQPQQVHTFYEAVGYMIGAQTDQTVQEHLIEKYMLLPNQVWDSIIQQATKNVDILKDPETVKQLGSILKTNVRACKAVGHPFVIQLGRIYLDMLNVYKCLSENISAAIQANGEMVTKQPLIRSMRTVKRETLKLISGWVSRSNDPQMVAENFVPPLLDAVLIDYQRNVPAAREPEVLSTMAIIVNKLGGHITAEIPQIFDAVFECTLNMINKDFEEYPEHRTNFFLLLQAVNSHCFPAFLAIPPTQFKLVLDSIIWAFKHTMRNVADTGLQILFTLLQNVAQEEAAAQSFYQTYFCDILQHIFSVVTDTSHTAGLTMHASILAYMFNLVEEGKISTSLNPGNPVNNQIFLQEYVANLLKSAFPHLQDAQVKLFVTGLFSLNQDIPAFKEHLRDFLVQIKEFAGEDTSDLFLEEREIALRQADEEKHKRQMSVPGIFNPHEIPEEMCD
# MYH9 (Myosin-9), sequence (P35579 whole entry): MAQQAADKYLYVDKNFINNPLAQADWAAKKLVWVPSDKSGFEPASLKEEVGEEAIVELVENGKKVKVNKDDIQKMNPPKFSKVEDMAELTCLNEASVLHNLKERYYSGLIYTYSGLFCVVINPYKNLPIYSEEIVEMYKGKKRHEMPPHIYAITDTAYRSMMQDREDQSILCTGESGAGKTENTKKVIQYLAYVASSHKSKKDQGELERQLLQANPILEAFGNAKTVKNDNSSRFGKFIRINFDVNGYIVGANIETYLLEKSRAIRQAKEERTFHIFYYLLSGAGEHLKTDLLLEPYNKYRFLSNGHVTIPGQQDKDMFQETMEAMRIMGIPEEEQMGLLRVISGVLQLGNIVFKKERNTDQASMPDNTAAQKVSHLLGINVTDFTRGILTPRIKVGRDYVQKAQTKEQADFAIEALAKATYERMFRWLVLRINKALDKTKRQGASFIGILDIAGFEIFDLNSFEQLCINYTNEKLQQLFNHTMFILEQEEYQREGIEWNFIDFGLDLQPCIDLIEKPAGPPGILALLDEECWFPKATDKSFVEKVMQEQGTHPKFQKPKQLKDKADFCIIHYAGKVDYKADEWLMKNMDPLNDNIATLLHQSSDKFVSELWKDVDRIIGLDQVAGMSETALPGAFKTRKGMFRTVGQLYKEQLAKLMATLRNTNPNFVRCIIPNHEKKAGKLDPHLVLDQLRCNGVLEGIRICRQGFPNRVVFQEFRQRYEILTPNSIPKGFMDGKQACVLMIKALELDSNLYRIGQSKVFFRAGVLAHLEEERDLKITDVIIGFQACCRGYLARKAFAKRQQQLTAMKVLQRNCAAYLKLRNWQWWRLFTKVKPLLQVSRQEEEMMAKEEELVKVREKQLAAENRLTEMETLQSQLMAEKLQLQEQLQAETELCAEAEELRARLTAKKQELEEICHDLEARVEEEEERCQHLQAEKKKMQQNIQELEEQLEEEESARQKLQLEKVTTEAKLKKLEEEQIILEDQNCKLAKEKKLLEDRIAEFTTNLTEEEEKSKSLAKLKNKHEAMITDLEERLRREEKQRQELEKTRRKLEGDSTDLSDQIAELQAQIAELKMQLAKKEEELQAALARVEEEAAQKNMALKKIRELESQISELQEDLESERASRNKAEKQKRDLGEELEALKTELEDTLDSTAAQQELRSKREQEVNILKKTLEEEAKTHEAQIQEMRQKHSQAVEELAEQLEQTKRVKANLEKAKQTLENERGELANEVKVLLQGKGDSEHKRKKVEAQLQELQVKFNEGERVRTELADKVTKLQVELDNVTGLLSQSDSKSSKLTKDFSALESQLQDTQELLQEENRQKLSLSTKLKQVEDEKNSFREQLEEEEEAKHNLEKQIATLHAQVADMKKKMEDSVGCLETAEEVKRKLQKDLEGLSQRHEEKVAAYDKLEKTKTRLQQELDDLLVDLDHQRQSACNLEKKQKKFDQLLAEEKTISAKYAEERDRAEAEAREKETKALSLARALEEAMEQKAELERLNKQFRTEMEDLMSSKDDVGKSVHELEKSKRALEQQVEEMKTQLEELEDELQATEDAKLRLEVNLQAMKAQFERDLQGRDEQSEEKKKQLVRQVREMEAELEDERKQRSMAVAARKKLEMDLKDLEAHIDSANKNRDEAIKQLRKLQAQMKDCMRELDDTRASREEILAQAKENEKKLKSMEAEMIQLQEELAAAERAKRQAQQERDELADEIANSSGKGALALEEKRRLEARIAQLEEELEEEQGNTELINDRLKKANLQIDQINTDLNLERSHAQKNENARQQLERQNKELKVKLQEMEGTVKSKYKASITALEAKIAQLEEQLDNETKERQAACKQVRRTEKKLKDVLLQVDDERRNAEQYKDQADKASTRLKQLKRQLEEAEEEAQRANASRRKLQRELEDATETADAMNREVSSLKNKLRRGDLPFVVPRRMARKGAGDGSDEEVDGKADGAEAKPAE
# MAPK2K1 (MAP2K1), sequence (Q02750 whole entry): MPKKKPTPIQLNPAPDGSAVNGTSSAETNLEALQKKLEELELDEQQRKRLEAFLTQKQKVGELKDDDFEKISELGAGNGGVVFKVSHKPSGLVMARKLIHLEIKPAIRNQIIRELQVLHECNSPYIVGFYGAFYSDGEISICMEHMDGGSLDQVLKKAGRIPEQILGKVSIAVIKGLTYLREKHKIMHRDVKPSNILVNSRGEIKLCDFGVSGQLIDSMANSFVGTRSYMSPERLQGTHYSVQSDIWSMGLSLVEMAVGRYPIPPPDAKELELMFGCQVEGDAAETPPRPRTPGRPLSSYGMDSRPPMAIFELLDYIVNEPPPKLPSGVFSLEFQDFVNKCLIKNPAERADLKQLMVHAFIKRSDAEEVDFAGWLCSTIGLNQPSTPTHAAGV
# PPP1CA, sequence (P62136 whole entry): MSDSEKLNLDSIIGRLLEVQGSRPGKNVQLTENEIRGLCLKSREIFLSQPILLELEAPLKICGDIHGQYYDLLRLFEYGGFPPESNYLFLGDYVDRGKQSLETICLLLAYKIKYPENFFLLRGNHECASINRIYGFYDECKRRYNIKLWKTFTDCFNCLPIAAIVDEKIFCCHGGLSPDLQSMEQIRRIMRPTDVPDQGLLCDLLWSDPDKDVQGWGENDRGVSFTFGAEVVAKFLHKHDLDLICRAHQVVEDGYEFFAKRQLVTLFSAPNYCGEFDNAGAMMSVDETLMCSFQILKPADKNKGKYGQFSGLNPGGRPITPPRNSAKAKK
# PPP3CA, sequence (P63098 2-170, other chains not shown): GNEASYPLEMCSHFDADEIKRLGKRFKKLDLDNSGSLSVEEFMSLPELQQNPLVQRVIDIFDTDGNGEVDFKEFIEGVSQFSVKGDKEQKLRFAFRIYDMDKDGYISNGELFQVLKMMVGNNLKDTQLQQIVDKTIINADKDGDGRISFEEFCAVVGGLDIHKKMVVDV
structure (smiles),measurement,setting,value
COC[C@@H]([C@H](O)[C@H](O)C(=O)NCC[C@H](C)c1nc(/C=C/C[C@@H]2O[C@]3(C[C@@H](O)[C@@H]2C)O[C@H]([C@H](C[C@H](O)[C@H](C)[C@H](O)[C@H](C)/C=C(C)/C(C)=C/C=C/C(C)=C\C#N)OC)[C@H](OP(=O)(O)O)C3(C)C)co1)N(C)C [Calyculin A],EC50,"PP2A/B (PPP2CA;PPP2CB); HeLa lysate, 12 peptides, read-out: median EC50 across LiP-Quant peptides",18 nM
same,LiP Score,"PP2A/B (PPP2CA;PPP2CB); peptide AHQLVMEGYNWCHDR, PPP2CA",4.613
same,EC50,"PP2A/B (PPP2CA;PPP2CB); peptide AHQLVMEGYNWCHDR, PPP2CA, read-out: EC50",11.4 nM
same,LiP Score,"PP2A/B (PPP2CA;PPP2CB); peptide NVVTIFSAPNYCYR, PPP2CA",4.820
same,EC50,"PP2A/B (PPP2CA;PPP2CB); peptide NVVTIFSAPNYCYR, PPP2CA, read-out: EC50",19.3 nM
same,LiP Score,"PP2A/B (PPP2CA;PPP2CB); peptide YSFLQFDPAPR, PPP2CA",5.385
same,EC50,"PP2A/B (PPP2CA;PPP2CB); peptide YSFLQFDPAPR, PPP2CA, read-out: EC50",18.2 nM
same,EC50,PP1,63 nM
same,LiP Rank,PPP1CA,196
same,LiP Score,PPP1CA,1.364
same,LiP Rank,PPP3CA,2187
same,LiP Score,PPP3CA,0.782
same,EC50 ratio difference between PP2A and PP1,PP2A and PP1,3.5 fold
C=CC[C@@H]1/C=C(\C)C[C@H](C)C[C@H](OC)[C@H]2O[C@@](O)(C(=O)C(=O)N3CCCC[C@H]3C(=O)O[C@H](/C(C)=C/[C@@H]3CC[C@@H](O)[C@H](OC)C3)[C@H](C)[C@@H](O)CC1=O)[C@H](C)C[C@@H]2OC [FK506],LiP Rank,FKBP1A; [5],8
same,Score,FKBP1A; [5],1.86
same,LiP Rank,FKBP1A; [6],10
same,Score,FKBP1A; [6],1.73
same,LiP Rank,FKBP1A; [7],4
same,Score,FKBP1A; [7],3.01
same,LiP Rank,"FKBP1A; FKBP1A peptide […], Decreasing",11
same,Score,"FKBP1A; FKBP1A peptide […], Decreasing",1.72
same,Score,"FKBP1A; FKBP1A peptide […], Increasing",3.49
same,Score,"FKBP1A; FKBP1A peptide […], Increasing, Supplementary Data 4",3.820
CO[C@H]1C[C@@H]2CC[C@@H](C)[C@@](O)(O2)C(=O)C(=O)N2CCCC[C@H]2C(=O)O[C@H]([C@H](C)C[C@@H]2CC[C@@H](O)[C@H](OC)C2)CC(=O)[C@H](C)/C=C(\C)[C@@H](O)[C@@H](OC)C(=O)[C@H](C)C[C@H](C)/C=C/C=C/C=C/1C [Rapamycin],LiP-Quant score,ARI1,> 2.5
same,LiP-Quant score,SYEC,> 2.5
same,EC50,[1]; FPR1 peptide _GWDVGIPK_,144 nM
same,EC50,[1]; FPR1 peptide _TGDLVTIH_,619 nM
same,LiP Rank,[1]; FPR1 peptide _GSPFQCNIGVGQVIK_,1
same,LiP Score,[1]; FPR1 peptide _GSPFQCNIGVGQVIK_,3.228
same,LiP Rank,[1]; FPR1 peptide _GWDVGIPK_,2
same,LiP Score,[1]; FPR1 peptide _GWDVGIPK_,3.111
same,LiP Rank,[1]; FPR1 peptide _RISPGDGATFPK_,4
same,LiP Score,[1]; FPR1 peptide _RISPGDGATFPK_,2.974
same,LiP Rank,[1]; FPR1 peptide _TGDLVTIH_,3
Cn1cnc2c(F)c(Nc3ccc(Br)cc3Cl)c(C(=O)NOCCO)cc21 [Selumetinib],LIPscore,MAPK2K1 (MAP2K1); peptide VSIAVIK (selumetinib sheet) or best peptide of the protein (Supp Data 7),2.617
same,LIPRank,MAPK2K1 (MAP2K1); peptide VSIAVIK (selumetinib sheet) or protein level (Supp Data 7),3
same,DRC,PLEC (Plectin); dose-response correlation,0.9991
same,LIPRank,PLEC (Plectin),1
same,LIPscore,PLEC (Plectin),3.316
same,DRC,NQO2; dose-response correlation,0.9666
same,LIPRank,NQO2,2
same,LIPscore,NQO2,3.07
same,DRC,LIN7C; dose-response correlation,0.9974
same,LIPRank,LIN7C,4
same,LIPscore,LIN7C,2.585
same,DRC,XPO1 (Exportin-1); dose-response correlation,0.9996
same,LIPRank,XPO1 (Exportin-1),5
same,LIPscore,XPO1 (Exportin-1),2.504
same,EC50,MAPK2K1,41 nM
C[C@@H]1O[C@@H](O[C@@H]2C=C3CC[C@@H]4[C@H](CC[C@]5(C)[C@@H](c6ccc(=O)oc6)CC[C@]45O)[C@@]3(C)CC2)[C@H](O)[C@H](O)[C@H]1O [proscillaridin A],EC50,[2],16.4 nM
same,DRC,[2]; peptide AVAGDASESALLK,0.9716
same,LiP Rank,[2]; peptide AVAGDASESALLK,1
same,LiP Score,[2]; peptide AVAGDASESALLK,4.437
same,EC50,[3],27.3 nM
same,DRC,[3]; peptide TILEDEKR,0.9716
same,LiP Rank,[3]; peptide TILEDEKR,2
same,LiP Score,[3]; peptide TILEDEKR,4.346
same,EC50,[4],17.3 nM
same,DRC,[4]; peptide LSSGEDTTELR,0.9721
same,LiP Rank,[4]; peptide LSSGEDTTELR,3
same,LiP Score,[4]; peptide LSSGEDTTELR,4.331
same,EC50,MYH9 (Myosin-9),31 nM
same,DRC,MYH9 (Myosin-9); peptide HSQAVEELAEQLEQTKR,0.9583
same,LiP Rank,MYH9 (Myosin-9); peptide HSQAVEELAEQLEQTKR,4
same,LiP Score,MYH9 (Myosin-9); peptide HSQAVEELAEQLEQTKR,4.317
